By solubility (kinetic) is commonly meant solubility judged after dilution from a stock solution rather than from solid. Usually AUC(0-inf) stands for total exposure, with the tail of the curve extrapolated. High values mean high exposure, low ones low exposure. Usually AUC(0-t) stands for exposure summed from dosing to a finite time, without extrapolation to infinity. Higher therefore signals more exposure. As usually defined, the half-life is the time needed for the level to fall by half in the phase considered. As a reminder, the bioavailability is dose-corrected exposure relative to a reference, in per cent. A lower bioavailability goes with poor availability. Usually Tmax stands for the time from dosing to the highest level. Broadly, the Cmax is the highest concentration seen after dosing. One may read the microsomal CLint as the rate of metabolic loss divided by the concentration.

Here are results for 1 compound from US20230348415A1, “BISPECIFIC ANTAGONISTS OF RETINOL-BINDING PROTEIN 4 THAT STABILIZE TRANSTHYRETIN TETRAMERS, THEIR PREPARATION, AND USE IN THE TREATMENT OF COMMON AGE-RELATED COMORBIDITIES” (The Trustees of Columbia University in the City of New York, priority 2020, published 2023).

Data set [1] is described as follows: Kinetic solubility assay. Format: physicochemical. The note with it: PBS (pH 7.4). As for the experimental part: Kinetic aqueous solubility determination for compound (±)-44 in PBS (pH 7.4) was conducted by Eurofins using UV detection (230 nm). […] In addition, chromatographic purity (%) was defined as the peak area of the principal peak relative to the total integrated peak area in the HPLC chromatogram of the calibration standard. A chromatogram of the calibration standard of each test compound, along with a UV/VIS spectrum with labeled absorbance maxima, was generated.

Data set [2] is described as follows: Plasma protein binding, human plasma. Format: in vitro ADME. The note with it: pH 7.4, read-out: % PPB, H (converted). The protocol: Plasma protein binding (PPB) for compounds determination for compound (±)-44 in PBS (pH 7.4) was conducted by Eurofins using equilibrium dialysis of plasma with HPLC-UV/Vis detection.
The peak areas of the test compound in the buffer and test samples were used to calculate percent binding and recovery according to the following formulas:
• Areap=Peak area of analyte in protein matrix • Areab=Peak area of analyte in buffer • Areac=Peak area of analyte in control sample

Data set [3] is described as follows: In vivo PK in CD-1 mice (IV and PO). Also noted: species or system mouse. The conditions noted are these: male CD-1 mice. As for the experimental part:
• IV dosing vehicles: 3% DMA/45% PEG300/12% ethanol/40% sterile water • PO dosing vehicle: 2% Tween 80 in 0.9% saline • Dose formulation: The dose formulation was prepared by the step-wise addition (in the order listed) of the individual components of the vehicle to a weighed quantity of test compound in a volume that yielded the desired final concentration. Each formulation was prepared by mixing a weighed quantity of test compound with the appropriate volume of vehicle. • Dosing Solution Analysis: The dosing solutions were analyzed by LC-MS/MS. The dosing solutions were diluted into mouse blood and analyzed in triplicate. All concentrations are expressed as mg/mL of the free base. The nominal dosing level was used in all calculations for Group 1.
• Species and strain: mouse; male CD-1 • Mean weight: 0.034 kg for the IV arm; 0.027 kg for PO arm • Number: 6 animals total (three animals per dosing group (Group 1 (IV) and Group 2 (PO)), per study) • COMPLIANCE: This non-clinical study followed established practices and standard operating procedures of Absorption Systems as well as the study protocol. This study was exploratory in nature and was not conducted in accordance with the principles set forth in the United States Food and Drug Administration (FDA) Good Laboratory Practice (GLP) Regulations, 21 Code of Federal regulations (CFR) Part 58. The report is archived in a validated scientific data management system. Electronic signatures comply with the regulation 21 CFR Part 11.
Blood was collected from mice at pre-dose and at 5, 15 and 30 min, and 1, 2, 4, 8, 24 and 48 h post-dose. Hemolyzed blood samples were extracted by protein precipitation using acetonitrile. Following protein extraction with acetonitrile, compound levels were measured by LC-MS/MS. Pharmacokinetic parameters were calculated from the time course of the blood concentrations. Pharmacokinetic parameters were determined with Phoenix WinNonlin (v8.0) software using a non-compartmental model. The maximum blood concentrations (CO) after IV dosing were estimated by extrapolation of the first two time points back to t=0. The maximum blood concentration (Cmax) and the time to reach maximum blood concentration (tmax) after PO dosing were observed from the data. The area under the time concentration curve (AUC) was calculated using the linear trapezoidal rule with calculation to the last quantifiable data point, and with extrapolation to infinity if applicable. Blood half-life (t ½) was calculated from 0.693/slope of the terminal elimination phase. Mean residence time, MRT, was calculated by dividing the area under the moment curve (AUMC) by the AUC. Clearance (CL) was calculated from dose/AUC. Steady-state volume of distribution (Vss) was calculated from CL*MRT. Bioavailability was determined by dividing the individual dose normalized PO AUC∞ values by the average dose-normalized IV AUC∞ value. Any samples below the limit of quantitation (1.00 ng/mL) were treated as zero for pharmacokinetic data analysis.

Data set [4] in a line: Metabolic stability and clearance in human liver microsomes. Format: in vitro ADME. As for the experimental part: The results of metabolic stability determinations for novel compounds and testosterone (positive control) were conducted in the presence of human, rat, mouse, and monkey liver microsomes. Values shown are percent of parent remaining after a 30 minute incubation. All measurements were done in duplicate. Assay results for testosterone were within an acceptable range.
Mixed-gender human liver microsomes (Lot #1710084), male Sprague-Dawley rat liver microsomes (Lot #1610290), male CD-1 mouse liver microsomes (Lot #1710069), and male Cynomolgous liver microsomes (Lot #1510193) were purchased from XenoTech. The reaction mixture, minus NADPH, was prepared as described below. The test article was added into the reaction mixture at a final concentration of 1 μM. The control compound, testosterone, was run simultaneously with the test article in a separate reaction. An aliquot of the reaction mixture (without cofactor) was equilibrated in a shaking water bath at 37° C. for 3 minutes. The reaction was initiated by the addition of cofactor, and the mixture was incubated in a shaking water bath at 37° C. Aliquots (100 μL) were withdrawn at 0, 10, 20, 30, and 60. […] Half-lives were calculated using GraphPad software, fitting to a single-phase exponential decay equation.
In general terms: Liver microsomes are a subcellular fraction often used to study metabolism.

≈ marks a conversion by molar mass, not a printed value.

With `Cc1cc(C(=O)O)nc(N2CCC(COc3ccccc3C(F)(F)F)C2)n1` (racemic) [Compound (±)-44, (±)-6-Methyl-2-(3-((2-(trifluoromethyl)phenoxy)methyl)pyrrolidin-1-yl)pyrimidine-4-carboxylic Acid], the solubility (kinetic) in data set [1] is 187.4 µM (≈ 71.5 µg/mL). Moreover, the fraction unbound in data set [2] is 0.002. Further, the CL in data set [3] (IV 2 mg/kg) was 0.832 mL/min/kg. In data set [3] (PO 5 mg/kg), this compound yielded an AUCINF of 52439 ng·h/mL and a t1/2 of 9.9 h. In data set [3] (mouse, whole blood, IV 2 mg/kg), this compound showed an AUC(0-inf) of 40300 ng·h/mL, an AUC(0-t) of 39500 ng·h/mL, a clearance of 0.832 mL/min/kg and a half-life of 8.6 h. In data set [3] (mouse, whole blood, IV 2 mg/kg, blood), this compound displayed a C0 of 9130 ng/mL. Besides, the Vd in data set [3] (mouse, whole blood, IV 2 mg/kg, read-out: Vss) turned out to be 0.518 L/kg. In data set [3] (mouse, whole blood, PO 5 mg/kg vs IV 2 mg/kg), this compound had a bioavailability of 52%. In data set [3] (mouse, whole blood, PO 5 mg/kg), the AUC(0-inf) was found to be 52400 ng·h/mL, the area under the curve AUC(0-t) stood at 50400 ng·h/mL, the Tmax turned out to be 0.83 h and the half-life is 9.9 h. The same compound showed a Cmax in data set [3] (mouse, whole blood, PO 5 mg/kg, blood) of 3030 ng/mL. Also, in data set [4] (30 minute incubation), the “Liver Microsomal Stability (% remaining at 30 min), HLM” value was 105%. Besides, the microsomal CLint at 1 μM in data set [4] (both sexes, human liver microsomes, read-out: Microsomal CLint, H) is below 0.0231 µL/min/mg.
